Here are results for 15 molecules from patent publication US20090270435A1 (priority 2006, published 2009).

For orientation: IC50 means the concentration that gives 50% inhibition. A lower IC50 goes with greater potency in that assay.

For the first assay, the target named is T1, ACC1 from rat liver (Rattus norvegicus, UniProt P11497).
T1 construct: The livers (for ACC1 preparation) or skeletal muscle tissue (for ACC2 preparation) are removed; from tissue; host or cells: liver of male CD rats (fasted, then fed a high sucrose diet)
Briefly: Direct inhibition of ACC1 activity (14C-bicarbonate incorporation). The class given is biochemical. The conditions noted are these: ACC1 from rat liver. The essentials:
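ACC1 partially purified from livers of fasted/sucrose-refed male rats by PEG and ammonium sulfate fractionation, then preincubated 30 min at 37°C with 10 mM citrate and 1.0 mM MgCl2. Reaction ran 7 min at 37°C, stopped with HCl; acid-stable radioactivity counted by scintillation; HCl-first tubes served as blanks.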
`Cc1cc(C(=O)N2CCC3(CC2)CC(=O)c2ccc(Cl)cc2O3)cc2cn[nH]c12` [Ex. A17, 7-chloro-1′-[(7-methyl-1H-indazol-5-yl)carbonyl]spiro[chromene-2,4′-piperidin]-4(3H)-one] came in with an IC50 of 70.5 nM. That is a double-digit nanomolar value. The molecule “6-chloro-1′-[(7-chloro-1H-indazol-5-yl)carbonyl]spiro[chromene-2,4′-piperidin]-4(3H)-one [Ex. B8]” came in with an IC50 of 166 nM. The same measure, in the same setting: with `Cc1cc(C(=O)N2CCC3(CC2)CC(=O)c2cc(Cl)ccc2O3)cc2cn[nH]c12` [Ex. A26, 6-chloro-1′-[(7-methyl-1H-indazol-5-yl)carbonyl]spiro[chromene-2,4′-piperidin]-4(3H)-one] the figure was 113 nM; with `COc1cc(Cl)c2c(c1)OC1(CCN(C(=O)c3cc(C)c4[nH]ncc4c3)CC1)CC2=O` [Ex. A6, 5-chloro-7-methoxy-1′-[(7-methyl-1H-indazol-5-yl)carbonyl]spiro[chromene-2,4′-piperidin]-4(3H)-one], 31.9 nM; with `COc1ccc2c(c1F)C(=O)CC1(CCN(C(=O)c3cc(Cl)c4[nH]ncc4c3)CC1)O2` [Ex. B11], 217 nM. The molecule `O=C1CC2(CCN(C(=O)c3ccc4nc[nH]c4c3)CC2)Oc2ccc(Cl)cc21` [Ex. L34] returned an IC50 of more than 1000 nM.

Turning to `CCc1nc2cc(C(=O)N3CCC4(CC3)CC(=O)c3ccccc3O4)ccc2n1-c1cccc(OC)c1` [Ex. L30, 1′-{[2-ethyl-1-(3-methoxyphenyl)-1H-benzimidazol-5-yl]carbonyl}spiro[chromene-2,4′-piperidin]-4(3H)-one], half-maximal inhibition (IC50) was put at 390 nM. In other words, the sub-micromolar range.

In the case of `CC(C)c1ccc2c(c1)C(=O)CC1(CCN(C(=O)c3cccc4cn[nH]c34)CC1)O2` [Ex. H10, 1′-(1H-indazol-7-ylcarbonyl)-6-isopropylspiro[chromene-2,4-piperidin]-4(3H)-one], the IC50 stood at 693 nM. As to `O=C1CC2(CCN(C(=O)c3cc(Cl)c4[nH]ncc4c3)CC2)Oc2ccc(C(F)(F)F)cc21` [Ex. B12, 1′-[(7-chloro-1H-indazol-5-yl)carbonyl]-6-(trifluoromethyl)spiro[chromene-2,4′-piperidin]-4(3H)-one], the IC50 stood at 257 nM. `Cc1cc(C(=O)N2CCC3(CC2)CC(=O)c2c(Cl)cc(Cl)cc2O3)cc2cn[nH]c12` [Ex. A30, 5,7-dichloro-1′-[(7-methyl-1H-indazol-5-yl)carbonyl]spiro[chromene-2,4′-piperidin]-4(3H)-one] returned an IC50 of 209 nM.

Staying with this assay, now noted: Table of Examples M1-M36.
As to `O=C1CC2(CCN(C(=O)c3cccc(-c4cc[nH]n4)c3)CC2)Oc2ccc(OC(F)(F)F)cc21` [Ex. M13, 1′-[3-(1H-pyrazol-3-yl)benzoyl]-6-(trifluoromethoxy)spiro[chromene-2,4′-piperidin]-4(3H)-one], 220 nM corresponded to half-maximal inhibition (IC50). Consider `O=C1CC2(CCN(C(=O)c3cccc(-c4cc[nH]n4)c3)CC2)Oc2ccc(C(=O)N3CCCC3)cc21` [Ex. M9, 1′-[3-(1H-pyrazol-3-yl)benzoyl]-6-(pyrrolidin-1-ylcarbonyl)spiro[chromene-2,4′-piperidin]-4(3H)-one], for which the IC50 is 179 nM. This IC50 and that of the molecule before are within 1.5-fold of each other. In turn, `Cc1cc2c(cc1Br)C(=O)CC1(CCN(C(=O)c3cccc(-c4cc[nH]n4)c3)CC1)O2` [Ex. M10, 6-bromo-7-methyl-1′-[3-(1H-pyrazol-3-yl)benzoyl]spiro[chromene-2,4′-piperidin]-4(3H)-one] had an IC50 of 201 nM.

The same assay, now with this note: Table of Examples O1-O4.
`COc1cc(C)c2c(c1)OC1(CCN(C(=O)c3cccc(-c4ccn[nH]4)c3)CC1)CC2=O` [Ex. O4, 7-methoxy-5-methyl-1′-[3-(1H-pyrazol-5-yl)benzoyl]spiro[chromene-2,4′-piperidin]-4(3H)-one] had an IC50 of 468 nM. This lies in the sub-micromolar range.

Still in this assay, the particulars now being: Table of Examples P1-P15.
In the case of `Cc1cc2c(cc1C)C(=O)CC1(CCN(C(=O)c3cc(-c4ccn(C)n4)ccc3Cl)CC1)O2` [Ex. P3, 1′-[2-chloro-5-(1-methyl-1H-pyrazol-3-yl)benzoyl]-6,7-dimethylspiro[chromene-2,4′-piperidin]-4(3H)-one], the IC50 is less than 3000 nM.
